From patent EP4755885A1 (Shanghai Hansoh Biomedical Co., Ltd., priority 2023, dated 2025)
pEC50: −log10 of the molar value. Where two headings read alike, the source gives them in different places.

Assays:
[1] = target: T1, human GLP-1 receptor (Homo sapiens, UniProt P43220); experiment: cAMP production in cell line stably transformed with human GLP1 receptor, 2 h co-incubation (HTRF); assay type: cell-based; settings: CHO-K1/GLP-1R/CRE-luc cells, stimulation for 2 h
T1 construct: expressed in transfected cells
Method in brief: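 CHO-K1/GLP-1R/CRE-luc cells (human GLP-1R) incubated 2 h at 37 °C with compound (12-point 3-fold series) and 0.5 mM IBMX in DMEM/F12 with 0.1% casein. cAMP measured by HTRF (665/620 nm ratio); EC50 from four-parameter fit.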

[2] = Pharmacokinetic evaluation in beagles, oral administration; assay type: in vivo; settings: dog, po, p.o. 2 mg/kg, plasma; for Cmax: read-out: Cmax; for MRT inf: read-out: MRT 0-∞; for Tmax: read-out: tmax
Method in brief: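 Male beagles (3) fasted overnight received 2 mg/kg orally as a 0.4 mg/mL solution in 10% PEG400/10% PG/80% glycine buffer, pH 9.0-9.5. Plasma (EDTA-K2) sampled predose and 0.25-24 h; acetonitrile precipitation, then LC/MS/MS quantification.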

[3] = Long-term administration, body weight and food intake of mice fed with CDAHFD high-fat diet; assay type: in vivo, GLP-1R humanized C57BL/6 mice
Excerpt: The purpose of this assay was to evaluate the effects of long-term administration of the compound on the body weight and food intake of GLP-1R humanized C57BL/6 mice fed with CDAHFD high-fat diet.
C57BL/6_hGLP-1R, male, 5-8 weeks, purchased from Biocytogen Pharmaceuticals (Beijing) Co., Ltd. • Choline-deficient, L-amino acid-defined, high-fat diet (CDAHFD), purchased from Shanghai Bopai Biotechnology Co., Ltd. (Research diet-A06071302) • Ultra-clean bench (CJ-2F, Suzhou Fengshi Experimental Animal Equipment Co., Ltd. • Electronic balance (BSA2202S-CW, Sartorius)
• 3.1 On the day of starting feeding the high-fat diet, the C57BL/6 mice were randomly grouped according to body weight. The first group was Blank, with 7 mice, and was fed with normal control diet. The remaining animals were the modeling group, and were fed with the high-fat diet until the end of the experiment. • 3.2 In week 4 of CDAHFD feeding, the animals in the modeling group were randomly grouped according to body weight, with 7 mice in each group. The first group was Vehicle group (Vehicle: 10%PEG400/10%PG/80% glycine buffer (100 mM glycine, 26 mM NaOH, pH 9) buffer), and was administered solvent; the remaining group was administration group. Administration regime: the corresponding compound was orally administered for a period of 21 days, once each day, the administration dose being 0.3 mg/kg, 1 mg/kg, 3 mg/kg, and 10 mg/kg, and the administration volume being 10 mL/kg. The Blank group continued to be fed with the normal diet, and was orally administered solvent once each day. • 3.3 The day of administration was defined as Day 0. • 3.4 The animals were weighed at each administration and the data were recorded. Oral administration was performed according to body weight, and the administration volume was 10 mL/kg. • 3.5 Starting from day 0 of the experiment, the food intake of the mice in each group was measured every three days. Specifically, after each weighing and administration, the diet was renewed, and the added amount and remaining amount were recorded. • 3.6 On Day 21, the end day, all mice were euthanized sequentially according to grouping order. Plasma and tissues (liver, kidney, ileum, pancreas, and brain) were taken for PK determination, and serum was taken for blood biochemistry determination (ALT, AST, TG, TC, and LDL-C).
The body weight and body weight change rate of the mice after administration were summarized and statistically analyzed. The body weight change rate was calculated according to (BWt - BW0) / BW0 × 100%, where BWt represents mouse body weight on day t of the experiment, and BW0 represents mouse body weight on day 0 of the experiment.

[4] = 3 mg/kg orally once each day for 21 days

T1 sequence (P43220 24-463): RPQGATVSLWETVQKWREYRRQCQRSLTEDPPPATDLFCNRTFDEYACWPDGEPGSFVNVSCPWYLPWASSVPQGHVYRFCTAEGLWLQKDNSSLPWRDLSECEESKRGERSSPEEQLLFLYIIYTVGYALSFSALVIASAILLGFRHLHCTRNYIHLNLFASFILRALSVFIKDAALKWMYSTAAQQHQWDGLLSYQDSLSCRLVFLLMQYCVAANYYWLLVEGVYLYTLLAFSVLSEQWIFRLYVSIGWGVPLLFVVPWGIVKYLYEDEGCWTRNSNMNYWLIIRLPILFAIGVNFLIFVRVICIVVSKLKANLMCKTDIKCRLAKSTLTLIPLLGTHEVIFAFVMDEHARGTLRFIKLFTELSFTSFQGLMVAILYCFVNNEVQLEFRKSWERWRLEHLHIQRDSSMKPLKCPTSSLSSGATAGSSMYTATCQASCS

| Structure (SMILES) | pEC50 ([1]; read-out: EC50) | AUC(0-inf) [2] [ng·h/mL] | AUC(0-t) at 24 h [2] [ng·h/mL] | half-life [2] [h] | Cmax [2] [ng/mL] | MRT inf [2] [h] | Tmax [2] [h] | Body weight change (%)- ([3]; 0.3mg/kg orally once each day for 21 days) [%] | Body weight change (%)- ([3]; 1 mg/kg orally once each day for 21 days) [%] | AUC(0-inf) ([2]; male, beagle) [ng·h/mL] | half-life ([2]; male, beagle) [h] | AUC(0-t) ([2]; male, beagle, read-out: AUC 0-t) [ng·h/mL] | Cmax ([2]; male, beagle) [ng/mL] | MRT inf ([2]; male, beagle) [h] | Tmax ([2]; male, beagle) [h] | Body weight change (%)- [3, 4] [%] | pEC50 [1] |
| --- | --- | --- | --- | --- | --- | --- | --- | --- | --- | --- | --- | --- | --- | --- | --- | --- | --- |
| CC#C[C@H]1C[C@]1(c1noc(=O)[nH]1)n1c(C(=O)N2CCc3nn(-c4cc(C)c(F)c(C)c4)c(-n4ccn(-c5ccc6c(cnn6C6CC6)c5F)c4=O)c3[C@@H]2C)cc2cc([C@H]3CCOC(C)(C)C3)ccc21 [Example 144, 3-((1S,2R)-1-(2-((S)-3-(3-(1-cyclopropyl-4-fluoro-1H-indazole-5-yl)-2-carbonyl-2,3-dihydro-1H-imidazole-1-yl)-2-(4-fluoro-3,5-dimethylphenyl)-4-methyl-4,5,6,7-tetrahydro-2H-pyrazolo[4,3-c]pyridin-5-carbonyl)-5-((S)-2,2-dimethyltetrahydro-2H-pyrano-4-yl)-1H-indole-1-yl)-2-(propyl-1-alkynyl-1-yl)cyclopropyl)-1,2,4-oxadiazol-5(4H)-one] | 10.30 | 16600 | 15900 | 5.8 | 2470 | 6.5 | 1.7 | -10.40 | -14.70 |  |  |  |  |  |  |  |  |
| C#C[C@H]1C[C@]1(c1noc(=O)[nH]1)n1c(C(=O)N2CCc3nn(-c4cc(C)c(F)c(C)c4)c(-n4ccn(-c5ccc6c(cnn6C6CC6)c5F)c4=O)c3[C@@H]2C)cc2cc([C@H]3CCOC(C)(C)C3)ccc21 [Example 143] | 10.89 |  |  |  |  |  |  |  |  | 17800 | 3.3 | 13800 | 2040 | 4.8 | 2.7 | -19.43 |  |
| Cc1cc(-n2nc3c(c2-n2ccn(-c4ccc5c(cnn5C5CC5)c4F)c2=O)[C@H](C)N(C(=O)c2cc4cc([C@H]5CCOC(C)(C)C5)ccc4n2[C@@]2(c4noc(=O)[nH]4)C[C@@H]2COC2CC2)CC3)cc(C)c1F [Example 67] |  | 11800 | 11500 | 4.2 | 2110 | 5.7 | 1.5 |  |  |  |  |  |  |  |  | -20.34 | 10.62 |
| [2H]C([2H])([2H])n1nc2c3c(c(-n4ccn(-c5c6c(nn5-c5cc(C)c(F)c(C)c5)CCN(C(=O)c5cc7cc([C@H]8CCOC(C)(C)C8)ccc7n5[C@@]5(c7noc(=O)[nH]7)C[C@@H]5C)[C@H]6C)c4=O)ccc31)OCCC2 [Example 282, 3-((1S,2S)-1-(5-((S)-2,2-dimethyltetrahydro-2H-pyran-4-yl)-2-((S)-2-(4-fluoro-3,5-dimethylphenyl)-4-methyl-3-(3-(2-(methyl-d3)-2,7,8,9-tetrahydrooxaheptano[4,3,2-cd]indazol-5-yl)-2-carbonyl-2,3-dihydro-1H-imidazol-1-yl)-4,5,6,7-tetrahydro-2H-pyrazolo[4,3-c]pyridine-5-carbonyl)-1H-indol-1-yl)-2-methylcyclopropyl)-1,2,4-oxadiazol-5(4H)-one] | 10.13 | 10800 | 9130 | 8.5 | 858 | 12.1 | 2 |  |  |  |  |  |  |  |  |  |  |
